Measurements reported in patent US3932383A, “9-Dihydroniddamycin A compounds and related 3-(O)-esters and the process for their preparation” (Abbott Laboratories, priority 1974, dated 1976).
Converted amounts (≈) assume the structure as drawn.

What was measured:
Type in all cases: cell-based
[1] = test system: Streptococcus pyogenes C203; assay: two-fold tube dilution test; details: brain-heart infusion broth, 24 hours at 37° C., read-out: Minimum Inhibitory Concentration
Procedure: (§1) Three niddamycin and two dihydroniddamycin compounds were tested for their activity against Streptococcus pyogenes C203, Diplococcus pneumoniae 6301 and Mycoplasma pneumoniae FH.
(§2) A standard two-fold tube dilution test was used. The medium and inoculum were varied with each culture.
In the test for activity against Streptococcus pyrogenes C203, 5 ml. portions of brain-heart infusion broth were used with 0.1 ml. of a 1:100 dilution culture. The test was incubated for 24 hours at 37° C.

[2] = test system: Mycoplasma pneumoniae FH; assay: two-fold tube dilution test; details: 144 h, PPLO broth, 6 days at 37° C., read-out: Minimum Inhibitory Concentration
Procedure: as §1, §2
In the test for activity against Mycoplasma pneumoniae FH, 4.5 ml. portions of PPLO broth were used with 0.5 ml. of a 1:100 dilution culture. the test was incubated for 6 days at 37° C.

[3] = test system: Mycoplasma hyorhinis 17981; assay: two-fold tube dilution method; details: 37° C., read-out: Minimum Inhibitory Concentration
Procedure: (§3) Two niddamycin derivatives were tested for their activity against 21 organisms.
(§4) An agar dilution two-fold dilution test was used for the first 14 bacterial organisms, while the remaining seven were tested by means of a two-fold tube dilution method. The incubation for all the tests was carried out at 37° C.
(§5) The niddamycin base compound (M-188 ) was used as the control compound.

[4] = test system: Mycoplasma granularum 19168; assay: two-fold tube dilution method; details: Acholeplasma granularum, 37° C., read-out: Minimum Inhibitory Concentration
Procedure: as §3, §4, §5

[5] = test system: Haemophilus influenzae 9334; assay: two-fold tube dilution method; details: 37° C., read-out: Minimum Inhibitory Concentration
Procedure: as §3, §4, §5

[6] = test system: Mycoplasma pneumoniae FH; assay: two-fold tube dilution method; details: 37° C. (Table 2), read-out: Minimum Inhibitory Concentration
Procedure: as §3, §4, §5

[7] = test system: Mycoplasma gallispeticum S6; assay: two-fold tube dilution method; details: 37° C., read-out: Minimum Inhibitory Concentration
Procedure: as §3, §4, §5

[8] = test system: Trichomonas vaginalis C1M1; assay: two-fold tube dilution method; details: 37° C., read-out: Minimum Inhibitory Concentration
Procedure: as §3, §4, §5

[9] = test system: Crithidia fasciculata; assay: two-fold tube dilution method; details: 37° C., read-out: Minimum Inhibitory Concentration
Procedure: as §3, §4, §5

[10] = test system: Proteus vulgaris Abbott JJ; assay: agar two-fold dilution test; details: 37° C., read-out: Minimum Inhibitory Concentration
Procedure: as §3, §4, §5

[11] = test system: Streptococcus faecalis 10541; assay: agar two-fold dilution test; details: Enterococcus faecalis, 37° C., read-out: Minimum Inhibitory Concentration
Procedure: as §3, §4, §5

[12] = test system: Shigella sonnei 9290; assay: agar two-fold dilution test; details: 37° C., read-out: Minimum Inhibitory Concentration
Procedure: as §3, §4, §5

[13] = test system: Pasteurella multocida 10544; assay: agar two-fold dilution test; details: 37° C., read-out: Minimum Inhibitory Concentration
Procedure: as §3, §4, §5

[14] = test system: Staphylococcus aureus Smith ER; assay: agar two-fold dilution test; details: read-out: Minimum Inhibitory Concentration
Procedure: as §3, §4, §5

[15] = test system: Klebsiella pneumoniae 10031; assay: agar two-fold dilution test; details: 37° C., read-out: Minimum Inhibitory Concentration
Procedure: as §3, §4, §5

[16] = test system: Staphylococcus aureus Wise 155; assay: agar two-fold dilution test; details: WISE155, 37° C., read-out: Minimum Inhibitory Concentration
Procedure: as §3, §4, §5

[17] = test system: Proteus mirabilis Finland No. 9; assay: agar two-fold dilution test; details: 37° C., read-out: Minimum Inhibitory Concentration
Procedure: as §3, §4, §5

[18] = test system: Pseudomonas aeruginosa BMH No. 10; assay: agar two-fold dilution test; details: BMHNO.10, 37° C., read-out: Minimum Inhibitory Concentration
Procedure: as §3, §4, §5

[19] = test system: Staphylococcus aureus 9144; assay: agar two-fold dilution test; details: 37° C., read-out: Minimum Inhibitory Concentration
Procedure: as §3, §4, §5

[20] = test system: Salmonella typhimurium Ed No. 9; assay: agar two-fold dilution test; details: Salmonella enterica, 37° C., read-out: Minimum Inhibitory Concentration
Procedure: as §3, §4, §5

[21] = test system: Staphylococcus aureus Smith; assay: agar two-fold dilution test; details: 37° C., read-out: Minimum Inhibitory Concentration
Procedure: as §3, §4, §5

[22] = test system: Escherichia coli Juhl; assay: agar two-fold dilution test; details: 37° C., read-out: Minimum Inhibitory Concentration
Procedure: as §3, §4, §5

[23] = test system: Streptococcus pyogenes Roper; assay: agar two-fold dilution test; details: 37° C., read-out: Minimum Inhibitory Concentration
Procedure: as §3, §4, §5

[24] = test system: P. citrinum; assay: standard FG (fungi) screening program; details: Penicillium citrinum, read-out: Minimum Inhibitory Concentration
Procedure: (§6) The samples were also tested on the standard FG (fungi) screening program.
as §5

[25] = test system: Rhizopus nigricans; assay: standard FG (fungi) screening program; details: Rhizopus stolonifer, read-out: Minimum Inhibitory Concentration
Procedure: as §6, §5

[26] = test system: Alternaria label isolate; assay: standard FG (fungi) screening program; details: read-out: Minimum Inhibitory Concentration
Procedure: as §6, §5

[27] = test system: C. globosum; assay: standard FG (fungi) screening program; details: Chaetomium globosum, read-out: Minimum Inhibitory Concentration
Procedure: as §6, §5

[28] = test system: F. oxysporum; assay: standard FG (fungi) screening program; details: Fusarium oxysporum, read-out: Minimum Inhibitory Concentration
Procedure: as §6, §5

[29] = test system: M. verrucaria; assay: standard FG (fungi) screening program; details: read-out: Minimum Inhibitory Concentration
Procedure: as §6, §5

[30] = test system: A. versicolor; assay: standard FG (fungi) screening program; details: Aspergillus versicolor, read-out: Minimum Inhibitory Concentration
Procedure: as §6, §5

[31] = test system: Diplococcus pneumoniae 6301; assay: two-fold tube dilution test; details: Streptococcus pneumoniae, brain-heart infusion broth and 20% horse serum, 24 hours at 37° C., read-out: Minimum Inhibitory Concentration
Procedure: as §1, §2
In the test for activity against Diplococcus pneumoniae 6301, 5 ml. portions of brain-heart infusion broth and 20% horse serum were used with 0.1 ml. of 1:100 dilution culture. The test was incubated for 24 hours at 37° C.

MIC [1]	MIC [2]	Compound	MIC [3]	MIC [4]	MIC [5]	MIC [6]	MIC [7]	MIC [8]	MIC [9]	MIC [10]	MIC [11]	MIC [12]	MIC [13]	MIC [14]	MIC [15]	MIC [16]	MIC [17]	MIC [18]	MIC [19]	MIC [20]	other results
25 µg/mL (≈ 30 µM)	50 µg/mL (≈ 60.1 µM)	COC(CC1CC(C)C(O)C=CC=CCC(C)OC(=O)CC(O)C(OC)C1OC1OC(C)C(OC2CC(C)(O)C(OC(=O)CC(C)C)C(C)O2)C(N(C)C)C1O)OC (single isomer, unassigned) [Compound 3, 9-Dihydroniddamycin A dimethyl acetal]	–	–	–	–	–	–	–	–	–	–	–	–	–	–	–	–	–	–	–
0.78 µg/mL (≈ 0.94 µM)	25 µg/mL (≈ 30.1 µM)	COC(CC1CC(C)C(=O)C=CC=CCC(C)OC(=O)CC(O)C(OC)C1OC1OC(C)C(OC2CC(C)(O)C(OC(=O)CC(C)C)C(C)O2)C(N(C)C)C1O)OC (stereo not drawn) [Compound 2, Niddamycin dimethyl acetal]	–	–	–	–	–	–	–	–	–	–	–	–	–	–	–	–	–	–	MIC [31]: ≤ 1.56 µg/mL
12.5 µg/mL (≈ 14.3 µM)	25 µg/mL (≈ 28.7 µM)	COC(CC1CC(C)C(=O)C=CC=CCC(C)OC(=O)CC(OC(C)=O)C(OC)C1OC1OC(C)C(OC2CC(C)(O)C(OC(=O)CC(C)C)C(C)O2)C(N(C)C)C1O)OC (stereo not drawn) [Compound 6B, 3-(O)-Acetylniddamycin dimethyl acetal]	–	–	–	–	–	–	–	–	–	–	–	–	–	–	–	–	–	–	–

Second part, the compound before the results:

Compound	MIC [1]	MIC [2]	MIC [3]	MIC [4]	MIC [5]	MIC [6]	MIC [7]	MIC [8]	MIC [9]	MIC [10]	MIC [11]	MIC [12]	MIC [13]	MIC [14]	MIC [15]	MIC [16]	MIC [17]	MIC [18]	MIC [19]	MIC [20]	other results
COC1C(O)CC(=O)OC(C)CC=CC=CC(O)C(C)CC(CC=O)C1OC1OC(C)C(OC2CC(C)(O)C(OC(=O)CC(C)C)C(C)O2)C(N(C)C)C1O (single isomer, unassigned) [Compound 5, 9-Dihydroniddamycin A]	–	–	0.25 µg/mL (≈ 0.318 µM)	2.5 µg/mL (≈ 3.18 µM)	6.2 µg/mL (≈ 7.89 µM)	50 µg/mL (≈ 63.6 µM)	0.25 µg/mL (≈ 0.318 µM)	> 100 µg/mL	> 100 µg/mL	> 100 µg/mL	0.78 µg/mL (≈ 0.992 µM)	> 100 µg/mL	12.5 µg/mL (≈ 15.9 µM)	> 100 µg/mL	12.5 µg/mL (≈ 15.9 µM)	1.56 µg/mL (≈ 1.98 µM)	> 100 µg/mL	> 100 µg/mL	0.78 µg/mL (≈ 0.992 µM)	> 100 µg/mL	MIC [21]: 0.78 µg/mL (≈ 0.992 µM); MIC [22]: > 100 µg/mL; MIC [23]: > 100 µg/mL; MIC [24]: > 100 µg/mL; MIC [25]: > 100 µg/mL; MIC [26]: > 100 µg/mL; MIC [27]: > 100 µg/mL; MIC [28]: > 100 µg/mL; MIC [29]: > 100 µg/mL; MIC [30]: > 100 µg/mL
COC(CC1CC(C)C(O)C=CC=CCC(C)OC(=O)CC(OC(C)=O)C(OC)C1OC1OC(C)C(OC2CC(C)(O)C(OC(=O)CC(C)C)C(C)O2)C(N(C)C)C1O)OC (single isomer, unassigned) [Compound 7B, 3-(O)-Acetyl-9-dihydroniddamycin A dimethyl acetal]	100 µg/mL (≈ 114 µM)	50 µg/mL (≈ 57.2 µM)	–	–	–	–	–	–	–	–	–	–	–	–	–	–	–	–	–	–	–
COC1C(OC(C)=O)CC(=O)OC(C)CC=CC=CC(O)C(C)CC(CC=O)C1OC1OC(C)C(OC2CC(C)(O)C(OC(=O)CC(C)C)C(C)O2)C(N(C)C)C1O (single isomer, unassigned) [Compound 8B, 3-(O)-Acetyl-9-Dihydroniddamycin A]	–	–	0.5 µg/mL (≈ 0.604 µM)	5 µg/mL (≈ 6.04 µM)	6.2 µg/mL (≈ 7.49 µM)	25 µg/mL (≈ 30.2 µM)	0.25 µg/mL (≈ 0.302 µM)	> 100 µg/mL	> 100 µg/mL	> 100 µg/mL	1.56 µg/mL (≈ 1.88 µM)	> 100 µg/mL	12.5 µg/mL (≈ 15.1 µM)	> 100 µg/mL	25 µg/mL (≈ 30.2 µM)	1.56 µg/mL (≈ 1.88 µM)	> 100 µg/mL	> 100 µg/mL	0.78 µg/mL (≈ 0.942 µM)	> 100 µg/mL	MIC [21]: 0.78 µg/mL (≈ 0.942 µM); MIC [22]: > 100 µg/mL; MIC [23]: > 100 µg/mL; MIC [24]: > 100 µg/mL; MIC [25]: > 100 µg/mL; MIC [26]: > 100 µg/mL; MIC [27]: > 100 µg/mL; MIC [28]: > 100 µg/mL; MIC [29]: > 100 µg/mL; MIC [30]: > 100 µg/mL
COC(CC1CC(C)C(=O)C=CC=CCC(C)OC(=O)CC(OC(C)=O)C(OC)C1OC1OC(C)C(OC2CC(C)(O)C(OC(=O)CC(C)C)C(C)O2)C(N(C)C)C1OC(C)=O)OC (stereo not drawn) [Compound 4B, 2',3-Di-(O)-acetylniddamycin dimethyl acetal]	> 100 µg/mL	> 100 µg/mL	–	–	–	–	–	–	–	–	–	–	–	–	–	–	–	–	–	–	MIC [31]: > 100 µg/mL
COC1C(O)CC(=O)OC(C)CC=CC=CC(=O)C(C)CC(CC=O)C1OC1OC(C)C(OC2CC(C)(O)C(OC(=O)CC(C)C)C(C)O2)C(N(C)C)C1O (stereo not drawn) [Niddamycin Base, niddamycin]	–	–	0.25 µg/mL (≈ 0.319 µM)	1 µg/mL (≈ 1.28 µM)	3.1 µg/mL (≈ 3.95 µM)	10 µg/mL (≈ 12.8 µM)	0.1 µg/mL (≈ 0.128 µM)	> 100 µg/mL	> 100 µg/mL	> 100 µg/mL	0.78 µg/mL (≈ 0.995 µM)	> 100 µg/mL	12.5 µg/mL (≈ 15.9 µM)	> 100 µg/mL	12.5 µg/mL (≈ 15.9 µM)	0.78 µg/mL (≈ 0.995 µM)	> 100 µg/mL	> 100 µg/mL	0.39 µg/mL (≈ 0.497 µM)	> 100 µg/mL	MIC [21]: 0.39 µg/mL (≈ 0.497 µM); MIC [22]: > 100 µg/mL; MIC [23]: > 100 µg/mL; MIC [24]: > 100 µg/mL; MIC [25]: > 100 µg/mL; MIC [26]: > 100 µg/mL; MIC [27]: > 100 µg/mL; MIC [28]: > 100 µg/mL; MIC [29]: > 100 µg/mL; MIC [30]: > 100 µg/mL
